Here are results for four molecules from patent publication US4771070A (Warner-Lambert Company, priority 1986, dated 1988).

In brackets after ≈: the same amount, converted by molar mass. Where a name gives a salt, the structure may show the parent alone. Read-outs that look alike come from different tables or passages of the source.

Series [1] is classed as physicochemical. As for the experimental part: After addition of the base solution, a white suspension formed, and some material coagulated on the walls of the solution container.
The resulting solution was concentrated to a final volume of about 2 ml on a rotary evaporator and then diluted to 40 ml with water. Two-milliliter aliquots of this solution were added to each of several 6-ml vials.
The solution was concentrated in vacuo to remove methanol and diluted to 10 ml for lyophilization. The lyophilized solid is white and powdery.

The next series concerns Alcaligenes viscolactis. Put plainly: Antimicrobial activity of CL-1957A, paper disc growth inhibition zone. It counts as cell-based. To be noted: ATCC21698, 16 h, ATCC 21698, Mycin medium, 500 μg/ml, read-out: Diameter of Inhibition Zone. As for the experimental part:
(§1) The disc and inoculated medium were incubated for 16 hours at 37° C. and the diameter of the resulting growth inhibition zone, if any, was measured.

A further series deals with Bacillus subtilis. Described as above. It is filed as cell-based. As for the experimental part:
as §1

The test system of a further series is Branhamella catarrahalis. Described as above. It is filed as cell-based. As to conditions: 16 h; PD 03596, CAP medium, 500 μg/ml; read-out: Diameter of Inhibition Zone. As for the experimental part:
as §1

The next series relates to Micrococcus luteus. Described as above. It counts as cell-based. To be noted: 16 h, PD 05064, PAS medium, read-out: Diameter of Inhibition Zone. As for the experimental part: as §1
The subject of another series is Proteus vulgaris. The description is as above. It counts as cell-based. To be noted: 16 h, PD 05062, PAS medium, read-out: Diameter of Inhibition Zone. As for the experimental part: as §1
The subject of the next series is Staphylococcus aureus. The series is described as above. It counts as cell-based. As to conditions: 16 h, read-out: Diameter of Inhibition Zone; for zone of inhibition at 10 µg/mL: 10 μg/ml; for zone of inhibition at 500 µg/mL: 500 μg/ml; for zone of inhibition at 100 µg/mL: 100 μg/ml. As for the experimental part: as §1
The test system of another series is Xanthomonas phaseoli. Described as above. It is filed as cell-based. As to conditions: 16 h, PD 06002, CMA medium, read-out: Diameter of Inhibition Zone. The procedure: as §1
Another series relates to P388 leukemia. Put plainly: In vivo activity of CL-1957A against P388 leukemia in mice.
For series [2], the system named is L1210 mouse leukemia cells. Put plainly: Cytotoxicity of CL-1957A in vitro. As to conditions: read-out: ID50 (the source's name). It counts as cell-based. An excerpt: (§2) The ID50 values appear in Table XII.
Series [3] concerns human colon adenocarcinoma cells. Kind of series: Cytotoxicity of CL-1957A in vitro. It is filed as cell-based. As to conditions: read-out: ID50 (the source's name).
Source text: as §2

For series [4], the system named is Ridgeway Osteogenic Sarcoma. Kind of series: In vivo activity of CL-1957A against Ridgeway Osteogenic Sarcoma in mice. As for the experimental part:
Male AKR mice were pooled, inoculated subcutaneously by trocar with 30-60 mg fragments of Ridgeway Osteogenic Sarcoma, repooled, and randomly distributed to treatment groups on Day 0.
Appropriate mice received intrapertioneal injections of the test compound dissolved in 0.9% sodium chloride solution on Days 2, 6, and 10, and then weekly thereafter. Tumors were measured on Days 24 and 35. The results are presented in Table XIII as % T/C (as defined below). % T/C values of less than 40 on Day 35 are considered active. [formula]

A further series concerns B16 Melanoma. Put plainly: In vivo activity of CL-1957A against B16 Melanoma in mice. To be noted: ratio of median life span. From the text:
The activity of the compound against B16 melanoma is presented in Table XIV in terms of % T/C values which represents the ratio of median life span in days of treated mice to untreated mice, expressed as a percentage.

The format of series [5] is physicochemical. As to conditions: for Percent Remaining After One Week: 168 h. As for the experimental part:
The thin-film preparations which resulted were assayed for stability by comparing the purity of the film against a standard sample by HPLC techniques.

The next series is described as follows: physchem. It is filed as physicochemical.

For the molecule `CCC(C=CC1OC(=O)C=CC1C)=CC(C)CC=CC(C)=CC(C)C(=O)C(C)C(O)C(C)CC(C)=CC(=O)O` (stereo not drawn) [calcium salt of CL-1957A], in series [1], the solubility in ethanol entry is recorded as “soluble in ethanol” and the solubility in water entry was “insoluble in water”.
Take `CCC(C=CC1OC(=O)C=CC1C)=CC(C)CC=CC(C)=CC(C)C(=O)C(C)C(O)C(C)CC(C)=CC(=O)O` (stereo not drawn) [CL-1957A, 19-(3,6-dihydro-3-methyl-6-oxo-2H-pyran-2-yl)-17-ethyl-6-hydroxy-3,5,7,9, 11,15-hexamethyl-8-oxo 2,10,12 16,18-nonadecapentaenoic acid]: the zone of inhibition at 500 µg/mL was 19 mm in the series with Alcaligenes viscolactis; 30 mm with Branhamella catarrahalis; 0 mm in the series with Proteus vulgaris (500 μg/ml); 16 mm in the series on Staphylococcus aureus (PD 02482, PAS medium); 22 mm with Staphylococcus aureus (PD 5045, AM-9 medium); 22 mm with Staphylococcus aureus (PD 5045, AM-10 medium). Further, in the series with Xanthomonas phaseoli (500 μg/ml), the zone of inhibition at 500 µg/mL worked out at 0 mm. The zone of inhibition at 10 µg/mL in the series with Bacillus subtilis (16 h, PD 04969, #169 medium, 10 μg/ml, read-out: Diameter of Inhibition Zone) came out at 0 mm; in the series with Bacillus subtilis (ATCC6633, 16 h, read-out: Diameter of Inhibition Zone, ATCC 6633, Mycin medium, 10 μg/ml), 0 mm; in the series with Micrococcus luteus (10 μg/ml), 0 mm; with Proteus vulgaris (10 μg/ml), 0 mm; in the series with Staphylococcus aureus (PD 02482, PAS medium), 0 mm; in the series with Staphylococcus aureus (PD 5045, AM-9 medium) it was 0 mm. Besides, the zone of inhibition at 10 µg/mL with Staphylococcus aureus (PD 5045, AM-10 medium) worked out at 0 mm; in the series with Xanthomonas phaseoli (10 μg/ml), 0 mm. The zone of inhibition at 100 µg/mL with Bacillus subtilis (ATCC6633, 16 h, read-out: Diameter of Inhibition Zone, ATCC 6633, #169 medium, 100 μg/ml) was 16 mm; with Bacillus subtilis (ATCC6633, 16 h, read-out: Diameter of Inhibition Zone, ATCC 6633, Mycin medium, 100 μg/ml) it was 0 mm; with Micrococcus luteus (100 μg/ml), 0 mm; in the series on Proteus vulgaris (100 μg/ml), 0 mm; in the series with Staphylococcus aureus (PD 5045, AM-9 medium), 17 mm; in the series on Staphylococcus aureus (PD 5045, AM-10 medium) it was 19 mm. Further, the zone of inhibition at 100 µg/mL in the series with Xanthomonas phaseoli (100 μg/ml) was 0 mm. For the same molecule, the “% T/C” value in the series with P388 leukemia (12.5 μg/kg/injection, Days 1-5, Test 1) is 118%; with P388 leukemia (25 μg/kg/injection, Days 1-5, Test 1), 127%; in the series with P388 leukemia (100 μg/kg/injection, Days 1-5, Test 1) it was “Toxic”; in the series with P388 leukemia (100 μg/kg/injection, Days 1-5, Test 2), “Toxic”; in series [4] (0.125 mg/kg/injection i.p. Days 2, 6, 10, then weekly, Day 24), 14%; in series [4] (0.125 mg/kg/injection i.p. Days 2, 6, 10, then weekly, Day 35, less than 40 considered active) it was 22%. Besides, the “% T/C” value is reported as 15% in series [4] (0.25 mg/kg/injection i.p. Days 2, 6, 10, then weekly, Day 24); 9% in series [4] (0.25 mg/kg/injection i.p. Days 2, 6, 10, then weekly, Day 35, less than 40 considered active); 0% in series [4] (0.50 mg/kg/injection i.p. Days 2, 6, 10, then weekly, Day 24); 0% in series [4] (0.50 mg/kg/injection i.p. Days 2, 6, 10, then weekly, Day 35, less than 40 considered active); 201% in the series on B16 Melanoma (0.075 mg/kg/injection i.p. Days 1, 5, 9); “Toxic” with B16 Melanoma (0.60 mg/kg/injection i.p. Days 1, 5, 9). Moreover, the IC50 in series [2] turned out to be 0.118 ng/mL (≈ 0.218 nM); in [3], 0.02 ng/mL (≈ 0.037 nM). For the same molecule, the “stability of ascorbate-containing thin-film preparation” value in [5] was “began to show some decomposition”. Besides, in series [5], the “stability of solid preparations of the pure compound” value is “insufficiently stable for pharmaceutical use”. In addition, the “stability of thin-film preparations” value in [5] is on record as “not stable for periods of even one week”. Moreover, the “Percent Remaining After One Week” value in [5] (solid cake from 1,1-dimethylethanol) came to 56%; in [5] (thin film from 95% ethanol) it was 40%; in series [5] (thin film from abs. ethanol), 60%. Moreover, the fraction remaining at 730 h in the series “physchem” (95% ethanol) is 100%; in “physchem” (absolute ethanol), 100%; in the series “physchem” (dimethylacetamide), 95%; in “physchem” (dimethylsulfoxide), 93%; in the series “physchem” (propylene glycol) it was 100%. For the same molecule, the share remaining at 3650 h in the series “physchem” (95% ethanol), in the series “physchem” (abs. ethanol) and in “physchem” (propylene glycol) was 100% in each case.
`CCC(C=CC1OC(=O)C=CC1C)=CC(C)CC=CC(C)=CC(C)C(=O)C(C)C(O)C(C)CC(C)=CC(=O)O` (stereo not drawn) [CL-1957A triethylammonium salt]: the solubility in water result in series [1] is “soluble in water”.
Same read-out and setting: the result for `CCC(C=CC1OC(=O)C=CC1C)=CC(C)CC=CC(C)=CC(C)C(=O)C(C)C(O)C(C)CC(C)=CC(=O)O` [N-methyl-D-glucamine salt] reads “soluble in water”.

As usually defined, the fraction remaining is what is left of the initial amount, in per cent. A low value points to a greater loss.
